Molecular target: Mu-type opioid receptor (Rattus norvegicus, UniProt P33535)
Assay: Concentration required for 50% inhibition of [3H]DAGO binding to mu opioid receptor in crude rat brain homogenates
Format: tissue-based

Chain of Mu-type opioid receptor (P33535 whole entry): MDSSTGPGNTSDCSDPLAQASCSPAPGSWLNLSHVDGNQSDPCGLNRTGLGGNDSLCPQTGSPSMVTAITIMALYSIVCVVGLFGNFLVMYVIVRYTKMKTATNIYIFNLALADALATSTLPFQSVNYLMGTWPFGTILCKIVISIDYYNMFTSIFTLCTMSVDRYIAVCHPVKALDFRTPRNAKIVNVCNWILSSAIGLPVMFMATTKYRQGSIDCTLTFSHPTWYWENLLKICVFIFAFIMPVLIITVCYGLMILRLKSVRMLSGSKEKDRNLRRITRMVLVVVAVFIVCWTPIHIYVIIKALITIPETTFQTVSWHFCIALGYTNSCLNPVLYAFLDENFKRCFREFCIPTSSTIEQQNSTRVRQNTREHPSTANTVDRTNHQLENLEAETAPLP

| Compound | IC50 |
| --- | --- |
| H-YGGFLI-NH2 | 0.168 µM |
| H-YGGFLN-NH2 | 0.078 µM |
| H-YGGFMT-NH2 | 0.041 µM |
| H-YGGFMN-NH2 | 0.028 µM |
| H-YGGFMA-NH2 | 0.028 µM |
| H-YGGFLM-NH2 | 0.112 µM |
| H-YGGFLP-NH2 | 0.108 µM |
| H-YGGFMQ-NH2 | 0.04 µM |
| H-YGGFMG-NH2 | 0.035 µM |
| H-YGGFMI-NH2 | 0.08 µM |
| H-YGGFMD-NH2 | 0.167 µM |
| CSCC[C@H](NC(=O)[C@H](Cc1ccccc1)NC(O)CNC(=O)CNC(=O)[C@@H](N)Cc1ccc(O)cc1)C(N)=O (some centres not stated) | 0.034 µM |
| H-YGGFLQ-NH2 | 0.075 µM |
| H-YGGFMS-NH2 | 0.034 µM |
| H-YGGFLA-NH2 | 0.06 µM |
| H-YGGFMR-NH2 | 0.046 µM |
| H-YGGFLD-NH2 | 0.214 µM |
| H-YGGFME-NH2 | 0.204 µM |
| H-YGGFLK-NH2 | 0.201 µM |

| Compound | IC50 |
| --- | --- |
| H-YGGFMY-NH2 | 0.039 µM |
| H-YGGFLL-NH2 | 0.098 µM |
| H-YGGFLT-NH2 | 0.065 µM |
| H-YGGFLF-NH2 | 0.381 µM |
| H-YGGFLH-NH2 | 0.141 µM |
| H-YGGFML-NH2 | 0.035 µM |
| H-YGGFMK-NH2 | 0.041 µM |
| H-YGGFLE-NH2 | 0.315 µM |
| H-YGGFLG-NH2 | 0.059 µM |
| H-YGGFMM-NH2 | 0.03 µM |
| H-YGGFLR-NH2 | 0.158 µM |
| H-YGGFMF-NH2 | 0.223 µM |
| H-YGGFLY-NH2 | 0.077 µM |
| CSCC[C@H](NC(=O)[C@H](Cc1ccccc1)N(N)C(=O)CNC(=O)CN(N)C(=O)[C@H](Cc1ccc(ON)cc1)NN)C(=O)N[C@H](C(N)=O)C(C)C | 0.107 µM |
| H-YGGFMP-NH2 | 0.057 µM |
| H-YGGFLS-NH2 | 0.065 µM |
| H-YGGFMH-NH2 | 0.037 µM |
| H-YGGFLV-NH2 | 0.189 µM |

From ChEMBL document CHEMBL1127196, “The use of synthetic peptide combinatorial libraries for the determination of peptide ligands in radio-receptor assays: Opioid peptides” (Bioorg Med Chem Lett, 1993)
